From paper PMC7053711, “A G protein–coupled receptor mediates neuropeptide-induced oocyte maturation in the jellyfish Clytia” (PLoS Biology, 2020)
Peptide text beside a SMILES is read from it.

Assays:
Clytia MIHR [1] = test: GPCR deorphanization assay, luminescence response to peptides at 1 μM (CHO-K1 cells, Gα-16, GFP-apoaequorin); format: cell-based, Clytia hemisphaerica; conditions: peptide 1E-6M, normalised to Platynereis FLamide receptor + 1 μM AKYFL-NH2, n = 3
Excerpt: We used a cell culture–based GPCR deorphanization assay to identify the MIH receptor from our candidate shortlist. cDNAs for each candidate were transfected into Chinese Hamster ovary K1 (CHO-K1) cells along with the promiscuous Gα protein Gα-16, and an aequorin-GFP luminescence reporter that measures Ca^2+ mobilization downstream of this heterologous Gα protein [27, 28]. We first screened the 16 candidate Clytia GPCRs against a mixture of 33 synthetic amidated peptides (including MIHs) predicted to be generated from previously identified putative Clytia neuropeptide precursors and one additional one identified from transcriptome data. Given our imperfect knowledge of pro-peptide processing in cnidarians, some of the synthetic peptides may not correspond to endogenous peptides. Only one of the 16 GPCRs was activated by this peptide mixture. This receptor responded well to all 4 synthetic Clytia MIH tetrapeptides, as well as to related Cladonema MIH peptides that can also activate Clytia oocyte maturation, but not to other Clytia peptide mixtures or poorly active MIH penta-/tripeptides. We termed this Clytia GPCR the Maturation Inducing Hormone Receptor (MIHR). The activity of individual peptides at 1 μM to stimulate the MIHR closely matched their in vivo ability to induce oocyte maturation (Fig 1B).
(§1) Cell culture GPCR ligand response assays were performed as described. Briefly, CHO-K1 cells were cultured in Ham’s F12 Nut Mix medium (Thermo Fisher Scientific) with 10% foetal bovine serum. Cells were seeded in 96-well plates at approximately 10,000 cells/well and transfected the following day with pcDNA3.1(+) plasmids encoding each of the 16 candidate Clytia GPCRs (S2 Text), the promiscuous Gα-16 protein [65], and a reporter construct GFP-apoaequorin [66] (60 ng each) using the transfection reagent TurboFect (Thermo Fisher Scientific). After 2 days of expression, the medium was removed and replaced with Hank’s balanced salt solution (HBSS) supplemented with 1.8 mM Ca2+, 10 mM glucose, and […] coelenterazine h (Promega, Madison, WI). After incubation at 37 °C for 2 hours, cells were tested by adding synthetic peptides (GenScript) in HBSS supplemented with 1.8 mM Ca2^+ and 10 mM glucose. A list of all synthetic peptides used is provided in S2 Table. Luminescence was recorded for 45 seconds in a plate reader (BioTek Synergy Mx or Synergy H4; BioTek, Winooski, VT). Data were integrated over the 45-second measurement period and recorded as technical triplicates in each case. Data were normalized using the response of Platynereis FLamide receptor to 1 μM AKYFL-NH2 [28]. Dose–response curves were obtained using concentrations between 0.01 nM and 100 μM for each peptide. Data for dose–response curves were recorded in triplicate for each concentration and the experiment was repeated independently 3 times. Dose–response curves were fitted with a four-parameter curve using Prism 6 (GraphPad, La Jolla, CA) and were normalized to the calculated upper plateau values (100% activation).
Supplementary file pbio.3000614.s011.xlsx: S1 Data Numerical data corresponding to Fig 1B. Raw luminescence values obtained in triplicate for each of the neuropeptide combinations tested against the MIHR in the deorphanization assay are provided. In the right-hand table, the raw luminescence values obtained in quadruple for the positive and negative controls are provided. In the lower table, means and standard errors of the mean of the luminescence values obtained for each neuropeptide combination and controls are also shown, as well as the values normalized to the positive control, which were used to prepare the graph shown in Fig 1B. MIHR, MIH receptor. (XLSX) Click here for additional data file.

Clytia MIHR [2] = test: Dose–response curves of Clytia MIHR, luminescence (CHO-K1 cells, Gα-16, GFP-apoaequorin); format: cell-based, Clytia hemisphaerica; parameters: key to Span (best-fit value) / Bottom (best-fit value): % activation, normalized to fitted upper plateau (100%); conditions: for EC50: four-parameter fit, variable slope, triplicate; for HillSlope / LogEC50: best-fit value; for Span / Top / Bottom: best-fit value (luminescence); for EC50 / relative activity on MIHR: three independent dose–response experiments
Experimental: The Clytia MIH amidated peptides are produced from two precursor genes Che-pp4 (generating multiple copies of WPRAamide, WPRYamide, and WPRPamide) and Che-pp1 (multiple copies of WPRPamide and RPRGamide).
as §1
Supplementary file pbio.3000614.s012.xlsx: S2 Data Numerical data corresponding to Fig 1C. The first three tabs show statistical values obtained using Prism 6 software (GraphPad, La Jolla, CA) from the raw luminescence values for 3 independent dose–response experiments. The raw luminescence values are shown, as well as the values normalized with respect to the maximum. […] MIH, maturation-inducing hormone. (XLSX) Click here for additional data file.

[3] = tested on: wild-type (WT) isolated female gonads; test: Gonad spawning assay, wild-type isolated gonads; parameters: species or system Clytia hemisphaerica; conditions: for Gonads spawning (number) / Percentage of spawning gonads: 4mM BrcAMP
Experimental: (§2) We performed a series of oocyte maturation and spawning assays, comparing the responses of wild-type and MIHR mutant isolated gonads and oocytes to different stimuli (Fig 4).
(§3) Sexually mature MIHR mutant medusae from colonies n5-13 and n5-23 and wild-type medusae were cultured on the same day–night cycle. Individual gonads were dissected in the evening after afternoon spawning. To test the light response, one group of each was transferred to 100 μL MFSW in wells of 96-well plastic plates, covered overnight, and re-exposed to white light the following day. To test responses to MIH and cAMP, other groups of dissected gonads were cultured overnight in constant light, then transferred to 96-well plastic plates for two hours. MIH was added to wells as an equal volume of 200 nM WPRPamide (GenScript) stock in MFSW was added to give a final concentration of 100 nM. Alternatively, a stock of 20 mM bromo adenosine 3′,5′cyclic monophosphate (Br-cAMP–Fluka; Sigma Aldrich) in distilled water was added to give a final concentration of 4 mM. Gonads were washed after 5 minutes incubation in Br-cAMP. Oocyte maturation was scored after 30 minutes as germinal vesicle breakdown (GVBD), i.e., visible dissolution of the oocyte nuclear membrane upon entry into M phase, which in all cases was followed by spawning about 1 hour later.
(§4) Supplementary file pbio.3000614.s013.xlsx: S3 Data Numerical data corresponding to Fig 4A and 4C. The first tab collects all the raw data from 3 independent gonad spawning assays. Information corresponding to the Fisher exact tests is also shown. […] The means and standard deviations were used to prepare the graph in Fig 4C. Information corresponding to the Fisher exact tests is also shown. (XLSX) Click here for additional data file.

[4] = tested on: MIHR mutant (n5-23, n5-13) isolated female gonads; test: Gonad spawning assay, MIHR mutant isolated gonads; parameters: species or system Clytia hemisphaerica; conditions: for Gonads spawning (number) / Percentage of spawning gonads: 4mM BrcAMP, MIH R K.O.
Experimental: as §2, §3, §4

[5] = tested on: fully grown oocytes isolated from WT gonads; test: Oocyte maturation assay, wild-type isolated oocytes (GVBD); format: cell-based, Clytia hemisphaerica; conditions: for Oocyte maturation (number) / Percentage of Oocytes maturing: 4mM BrcAMP, wild type
Excerpt: (§5) Fig 4 Oocyte maturation failure in MIHR mutant medusae. Oocyte maturation assays performed using isolated gonads (A, B) or isolated oocytes (C) from MIHR mutant jellyfish compared to WT. In A and C, bar heights represent mean percentages of 3 independent experiments and error bars show standard deviations. Total gonad or oocyte numbers for each treatment are indicated in gray. (A) Spawning response of isolated gonads from WT and n5-23 female medusae. Three treatments were compared as indicated above each panel: Light: light stimulation after incubation in the dark; MIH: treatment of light-maintained gonads with 100 nM WPRPamide; cAMP: treatment of light-maintained gonads with 4 mM Br-cAMP. […] Full datasets from three independent experiments are available in S3 Data. (B) Light microscope images illustrating gonads from an equivalent experiment performed with n5-13 female MIHR mutant medusae 120 minutes after the indicated treatments. Scale bar: 500 μm. […] Full datasets from 3 independent experiments are available in S3 Data. Br-cAMP, bromoadenosine 3′,5′-cyclic monophosphate; cAMP, cyclic adenosine monophosphate; KO, knockout; MIH, maturation-inducing hormone; MIHR, MIH receptor; WT, wild-type.
(§6) Fully grown oocytes were isolated manually from dissected gonads of wild-type and MIHR KO mutant jellyfish prepared as above. Maturation assays were performed in wells of 96-well plates or small plastic petri dishes lined with 2% agarose in MFSW. Spontaneous maturation occurs at a low frequency in control oocytes. To test MIH-induced maturation, 10 μL WPRPamide from 1 μM solution in MFSW was added to a final concentration of 100 nM. In some experiments, Br-cAMP from a 20 mM stock in H2O was used at a final concentration of 4 mM. GVBD was scored at 30 minutes, every 5 minutes, depending on experiments.
as §4

[6] = tested on: fully grown oocytes isolated from MIHR mutant (n5-23) gonads; test: Oocyte maturation assay, MIHR mutant isolated oocytes (GVBD); format: cell-based, Clytia hemisphaerica; conditions: for Oocyte maturation (number) / Percentage of Oocytes maturing: 4mM BrcAMP, MIH R K.O.
Excerpt: as §5, §6, §4

[7] = log(agonist) vs. response, variable slope (four parameters), fit of third dataset
[8] = wild type, replicate 1, total 12
[9] = wild type, replicate 2, total 10
[10] = wild type, replicate 3, total 10
[11] = BrcAMP, pooled n=32, Fisher exact test vs MIHR KO not significant at p < .01
[12] = BrcAMP, pooled n=29, Fisher exact test vs WT not significant at p < .01
[13] = BrcAMP, pooled n=59, Fisher exact test vs MIHR KO 0.215946, not significant at p < .01
[14] = BrcAMP, pooled n=92, Fisher exact test vs WT 0.215946, not significant at p < .01

## N=C(N)NCCC[C@H](NC(=O)[C@@H]1CCCN1C(=O)[C@@H](N)CCCNC(=N)N)C(=O)NCC(N)=O [RPRGa] (H-RPRG-NH2; N-terminus assumed)
Clytia MIHR [1]
  Normalised response (to positive control), mean: 0.2052
Clytia MIHR [2]; dataset/experiment 1
  EC50: 724 nM
Clytia MIHR [2]; dataset/experiment 2
  EC50: 2210 nM
Clytia MIHR [2]; first dataset
  HillSlope: 1.15
  LogEC50: -6.14
  Span: 80378
  Top: 82566
Clytia MIHR [2]; [7]
  HillSlope (best-fit value): 1.139
  LogEC50 (best-fit value): -5.859
  Span (best-fit value): 89.45
Clytia MIHR [2]; second dataset
  HillSlope: 0.9524
  LogEC50: -5.656
  Span: 33216
  Top: 36059
Clytia MIHR [2]
  EC50 / relative activity on MIHR: the lowest

## Nc1ncnc2c1nc(Br)n2[C@@H]1O[C@@H]2COP(=O)(O)O[C@H]2[C@H]1O [BrcAMP]
[3]; [8]
  Gonads spawning (number): 12
  Percentage of spawning gonads: 100
[3]; [9]
  Gonads spawning (number): 10
  Percentage of spawning gonads: 100
[3]; [10]
  Gonads spawning (number): 10
  Percentage of spawning gonads: 100
[3]; [11]
  Non-spawning gonads, WT NO: 0
  Spawning gonads, WT YES: 32
[3]; BrcAMP, wild type, summary of 3 replicates
  Percentage of spawning gonads (summary): 100
[4]; replicate 1, total 4
  Gonads spawning (number): 4
  Percentage of spawning gonads: 100
[4]; replicate 2, total 18
  Gonads spawning (number): 18
  Percentage of spawning gonads: 100
[4]; replicate 3, total 7
  Gonads spawning (number): 7
  Percentage of spawning gonads: 100
[4]; BrcAMP, MIHR K.O., summary of 3 replicates
  Percentage of spawning gonads (summary): 100
[4]; [12]
  Non-spawning gonads, MIHR KO NO: 0
  Spawning gonads, MIHR KO YES: 29
[5]; replicate 1, total 15
  Oocyte maturation (number): 15
  Percentage of Oocytes maturing: 100.00
[5]; replicate 2, total 26
  Oocyte maturation (number): 21
  Percentage of Oocytes maturing: 80.77
[5]; replicate 3, total 18.00
  Oocyte maturation (number): 13
  Percentage of Oocytes maturing: 72.22
[5]; BrcAMP, WT, pooled n=59
  % oocytes maturing, pooled: 83.0508%
[5]; [13]
  Maturing oocytes, WT YES: 49
  Non-maturing oocytes, WT NO: 10
[6]; replicate 1, total 31
  Oocyte maturation (number): 30
  Percentage of Oocytes maturing: 96.77
[6]; replicate 2, total 14
  Oocyte maturation (number): 12
  Percentage of Oocytes maturing: 85.71
[6]; replicate 3, total 47.00
  Oocyte maturation (number): 41
  Percentage of Oocytes maturing: 87.23
[6]; BrcAMP, MIHR KO, pooled n=92
  % oocytes maturing, pooled: 90.2174%
[6]; [14]
  Maturing oocytes, MIHR KO YES: 83
  Non-maturing oocytes, MIHR KO NO: 9

## RPRP-NH2 [RPRPa, Cladonema MIH tetrapeptide, RPRP-NH2]
Clytia MIHR [1]
  Normalised response (to positive control), mean: 0.33

## AWPRP-NH2 [AWPRPa]
Clytia MIHR [1]
  Normalised response (to positive control), mean: 0.02128

## N=C(N)NCCC[C@H](NC(=O)[C@@H]1CCCN1C(=O)[C@@H](N)CCCNC(=N)N)C(=O)N[C@@H](Cc1ccc(O)cc1)C(N)=O [RPRYa] (H-RPRY-NH2; N-terminus assumed)
Clytia MIHR [1]
  Normalised response (to positive control), mean: 0.39
Clytia MIHR [2]; dataset/experiment 1
  EC50: 57.7 nM
Clytia MIHR [2]; dataset/experiment 2
  EC50: 164 nM
Clytia MIHR [2]; first dataset
  HillSlope: 1.301
  LogEC50: -7.239
  Bottom: 997.1
  Span: 60319
  Top: 61316
Clytia MIHR [2]; [7]
  Bottom (best-fit value): 5.512
  HillSlope (best-fit value): 1.159
  LogEC50 (best-fit value): -6.887
  Span (best-fit value): 94.5
Clytia MIHR [2]; second dataset
  HillSlope: 1.165
  LogEC50: -6.785
  Bottom: 2011
  Span: 27358
  Top: 29369
Clytia MIHR [2]
  EC50 / relative activity on MIHR: highest activity
